In paper PMC8619920, “New Polyesterified Ursane Derivatives from Leaves of Maesa membranacea and Their Cytotoxic Activity” (Molecules, 2021):

Experiments:
[1] = tested on: HaCaT human immortalized keratinocytes; experiment: Cytotoxicity, LDH assay, HaCaT cells; format: cell-based; settings: Homo sapiens, HaCaT; 24 h treatment, 5–100 μg/mL
Experimental: (§1) Cytotoxic activity was tested on human cancer and normal cells, grouped in three panels, namely: prostate, skin and gastrointestinal. The prostate panel consisted of prostate cancer cell lines Du145 (ATCC HTB-81) and PC3 (ATCC CRL-1435), and prostate epithelial cells PNT-2 (ECACC 95012613). Melanoma cell lines A375 (ATCC CRL-1619) and HTB140 (ATCC Hs 294T) together with skin keratinocytes HaCaT (obtained as a kind gift of prof. Marta Michalik, Department of Cell Biology, Jagiellonian University, Kraków, Poland) were included into the skin panel. The gastrointestinal panel of cells comprised colon cancer cell lines Caco-2 (ATCC HTB-37) and HT29 (ATCC HTB-38). Du145 cells were grown in Modified Eagle’s Medium with low (1.0 g/L) glucose concentration, HT29, PC3 and PNT-2 cells in Dulbecco’s Modified Eagle’s Media: F12 HAM Nutrient Mixture, Caco-2 in Modified Eagle’s Medium with NEAA (no-essential amino acids) while melanoma cells and keratinocytes were maintained in Modified Eagle’s Medium with high (4.5 g/L) glucose concentration. The culture media (all supplied by Sigma-Aldrich Co.; St. Louis, MO, USA) contained antibiotics and 10% fetal bovine serum (FBS). All cultures were maintained at 37 °C, in a humidified, 5% CO2 containing, atmosphere.
(§2) The examined triterpenes were diluted in the culture media from freshly made stock solutions in MeOH (10 mg/mL) to the working concentrations (from 0 to 100 μg/mL).
(§3) Cell viability was determined as it was described previously. Cells suspended in the nutrient medium were transferred into 96-well microtiter plates (density 1.5 × 10^4 per well), and preincubated for 24 h (37 °C, 5% CO2). Then, the culture medium was replaced with the medium containing different concentrations of 1 or 2 (1–100 μg/mL). After 24 h of incubation, viability of the cells was determined using colorimetric lactate dehydrogenase (LDH) assay, in comparison to the controls to which corresponding aliquots of MeOH diluted with culture media were added. Cells grown in the medium without the tested compounds were used as control I (negative) and the positive control (control II) was obtained by incubation of the cells in the medium containing 1% Triton X-100. LDH released from the damaged cells into the cell culture medium was quantified by measuring the absorbance at 490 nm using Synergy II Biotek (BioTek Instruments, Winooski, VT, USA) microplate reader. Cytotoxicities of the examined compounds were calculated as follows: [(absorbance of the tested sample − absorbance of control I)/(absorbance of control II − absorbance of control I)] × 100. Results were means of three independent measurements (± SD). Doxorubicin (Ebewe Pharma GmbH., Unterach, Austria) was used as a reference cytostatic drug. The IC50 values were determined by plotting the percentage viability of the cells versus concentration and the adequate calculations made using AAT Bioquest website program (https://www.aatbio.com/tools/ic50-calculator, accessed on 29 October 2021).

[2] = Cytotoxicity, LDH assay, HaCaT cells; format: cell-based, human; settings: human, 24 h, mean ± SD of three, read-out: Cell viability HaCaT
Experimental: as §1, §2, §3

[3] = Cytotoxicity, LDH assay, PC3 cells; format: cell-based, human; settings: human, PC3 prostate adenocarcinoma cells, 24 h, mean ± SD of three, read-out: Cell viability PC3
Experimental: as §1, §2, §3

[4] = tested on: PC3 human prostate adenocarcinoma cells; experiment: Cytotoxicity, LDH assay, PC3 cells; format: cell-based; settings: 24 h treatment; for IC50: Homo sapiens, PC-3, 24 h
Experimental: as §1, §2, §3

[5] = Cytotoxicity, LDH assay, Caco-2 cells; format: cell-based, human; settings: human, Caco-2, 24 h, mean ± SD of three, read-out: Cell viability Caco-2
Experimental: as §1, §2, §3

[6] = tested on: Caco-2 human colon adenocarcinoma cells; experiment: Cytotoxicity, LDH assay, Caco-2 cells; format: cell-based; settings: 24 h treatment; for IC50: Homo sapiens, Caco-2, 24 h
Experimental: as §1, §2, §3

[7] = Cytotoxicity, LDH assay, HT29 cells; format: cell-based, human; settings: human, HT29 colon adenocarcinoma cells, 24 h, mean ± SD of three, read-out: Cell viability HT29
Experimental: as §1, §2, §3

[8] = tested on: HT29 human colon adenocarcinoma cells; experiment: Cytotoxicity, LDH assay, HT29 cells; format: cell-based; settings: Homo sapiens, HT-29; 24 h treatment, 5–100 μg/mL
Experimental: as §1, §2, §3

[9] = tested on: HTB140 human melanoma cells; experiment: Cytotoxicity, LDH assay, HTB140 cells; format: cell-based; settings: Homo sapiens; 24 h treatment, 5–100 μg/mL
Experimental: as §1, §2, §3

[10] = Cytotoxicity, LDH assay, HTB140 cells; format: cell-based, human; settings: human, HTB140 melanoma cells, 24 h, mean ± SD of three, read-out: Cell viability HTB140
Experimental: as §1, §2, §3

[11] = Cytotoxicity, LDH assay, DU145 cells; format: cell-based, human; settings: human, DU145 prostate carcinoma cells, 24 h, mean ± SD of three, read-out: Cell viability DU145
Experimental: as §1, §2, §3

[12] = tested on: PNT-2 human normal prostate epithelium cells; experiment: Cytotoxicity, LDH assay, PNT-2 cells; format: cell-based
Experimental: as §1, §2, §3

[13] = Cytotoxicity, LDH assay, PNT-2 cells; format: cell-based, human; settings: human, 24 h, mean ± SD of three, read-out: Cell viability PNT-2
Experimental: as §1, §2, §3

CCC(C)C(=O)OC1C=C2C3C(C)C(C)(O)CC(OC(C)=O)C3(C)CCC2(C)C2(C)CC(OC(C)=O)C3C(C)(C)C(O)C(OC(C)=O)CC3(C)C12 (stereo not drawn) [Compound 1, 2α,6β,22α-triacetoxy-11α-(2-methylbutyryloxy)-urs-12-ene-3α,20β-diol]
IC50 [1]: > 100 mg/L
viability at 24 h, 100 μg/mL ([2]; HaCaT immortalized keratinocytes, 100 μg/mL): 56.8 ± 2.2%
viability at 24 h, 5 μg/mL ([2]; HaCaT keratinocytes, 5 μg/mL): 96.52 ± 0.8%
viability at 24 h, 10 μg/mL ([2]; HaCaT keratinocytes, 10 μg/mL): 94.9 ± 1%
viability at 24 h, 20 μg/mL ([2]; HaCaT keratinocytes, 20 μg/mL): 88.37 ± 0.47%
viability at 24 h, 30 μg/mL ([2]; HaCaT keratinocytes, 30 μg/mL): 81.2 ± 1.77%
viability at 24 h, 40 μg/mL ([2]; HaCaT keratinocytes, 40 μg/mL): 74 ± 1.72%
viability at 24 h, 50 μg/mL ([2]; HaCaT keratinocytes, 50 μg/mL): 65.7 ± 1.22%
viability at 24 h, 5 μg/mL ([3]; 5 μg/mL): 96.2 ± 1.04%
viability at 24 h, 10 μg/mL ([3]; 10 μg/mL): 90.7 ± 0.93%
viability at 24 h, 20 μg/mL ([3]; 20 μg/mL): 83.9 ± 1.67%
viability at 24 h, 30 μg/mL ([3]; 30 μg/mL): 74.8 ± 1.17%
viability at 24 h, 40 μg/mL ([3]; 40 μg/mL): 62.6 ± 1.36%
viability at 24 h, 50 μg/mL ([3]; 50 μg/mL): 45.7 ± 1.85%
viability at 24 h, 100 μg/mL ([3]; 100 μg/mL): 28.1 ± 2.31%
IC50 PC3 ([4]; 5–100 μg/mL): 41.64 mg/L
IC50 ([4]; 5–100 μg/mL): 41.6 mg/L
IC50 ([4]; value in brackets, footnote d): 58.1 µM
viability at 24 h, 5 μg/mL ([5]; 5 μg/mL): 95.55 ± 0.74%
viability at 24 h, 10 μg/mL ([5]; 10 μg/mL): 88.7 ± 0.93%
viability at 24 h, 20 μg/mL ([5]; 20 μg/mL): 78.5 ± 1.94%
viability at 24 h, 30 μg/mL ([5]; 30 μg/mL): 65.9 ± 1.21%
viability at 24 h, 40 μg/mL ([5]; 40 μg/mL): 51.1 ± 2.4%
viability at 24 h, 50 μg/mL ([5]; 50 μg/mL): 35.8 ± 1.32%
viability at 24 h, 100 μg/mL ([5]; 100 μg/mL): 22.2 ± 1.53%
IC50 Caco-2 ([6]; 5–100 μg/mL): 35.65 mg/L
IC50 ([6]; 5–100 μg/mL): 35.7 mg/L
IC50 ([6]; value in brackets, footnote d): 49.8 µM
viability at 24 h, 5 μg/mL ([7]; 5 μg/mL): 97.04 ± 0.42%
viability at 24 h, 10 μg/mL ([7]; 10 μg/mL): 95.49 ± 0.82%
viability at 24 h, 20 μg/mL ([7]; 20 μg/mL): 90.9 ± 1.37%
viability at 24 h, 30 μg/mL ([7]; 30 μg/mL): 81.5 ± 1.89%
viability at 24 h, 40 μg/mL ([7]; 40 μg/mL): 72.5 ± 1.94%
viability at 24 h, 50 μg/mL ([7]; 50 μg/mL): 64.8 ± 1.69%
viability at 24 h, 100 μg/mL ([7]; 100 μg/mL): 55.2 ± 1.73%
IC50 [8]: > 100 mg/L
IC50 [9]: > 50 mg/L
viability at 24 h, 5 μg/mL ([10]; 5 μg/mL): 96.2 ± 1.12%
viability at 24 h, 10 μg/mL ([10]; 10 μg/mL): 93.82 ± 0.73%
viability at 24 h, 20 μg/mL ([10]; 20 μg/mL): 87.1 ± 2.09%
viability at 24 h, 30 μg/mL ([10]; 30 μg/mL): 78.9 ± 2.08%
viability at 24 h, 40 μg/mL ([10]; 40 μg/mL): 68.4 ± 2.17%
viability at 24 h, 50 μg/mL ([10]; 50 μg/mL): 59.5 ± 1.4%
viability at 24 h, 100 μg/mL ([10]; 100 μg/mL): 46.6 ± 2.09%
viability at 24 h, 5 μg/mL ([11]; 5 μg/mL): 93.19 ± 0.93%
viability at 24 h, 10 μg/mL ([11]; 10 μg/mL): 83.1 ± 1.96%
viability at 24 h, 20 μg/mL ([11]; 20 μg/mL): 70.4 ± 1.69%
viability at 24 h, 30 μg/mL ([11]; 30 μg/mL): 57.2 ± 2.2%
viability at 24 h, 40 μg/mL ([11]; 40 μg/mL): 41.3 ± 1.91%
viability at 24 h, 50 μg/mL ([11]; 50 μg/mL): 27.2 ± 2.28%
viability at 24 h, 100 μg/mL ([11]; 100 μg/mL): 9.87 ± 1.59%
Reduction of viability of PNT-2 cells ([12]; 100 µg/mL): 41%
IC50 ([12]; Homo sapiens, PNT2, 24 h treatment, 5–100 μg/mL): > 100 mg/L
viability at 24 h, 10 μg/mL ([13]; PNT-2 normal prostate epithelium cells, 10 μg/mL): 96.77 ± 0.6%
viability at 24 h, 100 μg/mL ([13]; PNT-2 normal prostate epithelium cells, 100 μg/mL): 59 ± 2.2%
viability at 24 h, 5 μg/mL ([13]; PNT-2 prostate epithelial cells, 5 μg/mL): 96.61 ± 0.53%
viability at 24 h, 20 μg/mL ([13]; PNT-2 prostate epithelial cells, 20 μg/mL): 94.59 ± 0.9%
viability at 24 h, 30 μg/mL ([13]; PNT-2 prostate epithelial cells, 30 μg/mL): 91 ± 1.07%
viability at 24 h, 40 μg/mL ([13]; PNT-2 prostate epithelial cells, 40 μg/mL): 83 ± 1.41%
viability at 24 h, 50 μg/mL ([13]; PNT-2 prostate epithelial cells, 50 μg/mL): 70.7 ± 2.58%
